# Experimental data from patent publication US20190015423A1, “REGULATION OF GENE EXPRESSION BY MODULATING PRIMARY CILIA LENGTH” (THE TRUSTEES OF COLUMBIA UNIVERSITY IN THE CITY OF NEW YORK, priority 2016, published 2019).
# Structures can show the parent of a compound that is named as a salt. Where two headings read alike, the source gives them in different places.
# Tested on: MLO-Y4 osteocytes
# Test: High-throughput drug screening of primary cilia length and incidence
# Format: cell-based
# Protocol: MLO-Y4 osteocytes were maintained on collagen I-coated dishes in MEMα (Life_Technologies) supplemented with 5% fetal bovine serum (FBS), 5% calf serum (CS), and 1% penicillin/streptomycin (P/S) at 37° C. and 5% CO2. Osteocytes were then seeded onto 384-well collagen-coated plates for 72 hours before fixation. […] These libraries include Tocris, Sigma LOPAC, Selleck Chemical, Prestwick, and Spectrum commercially available compound libraries. All cell seeding and plate handling was performed with the Perkin Elmer cell:explorer workstation.
# Cells were fixed in 4% paraformaldehyde and permeabilized with 0.1% Triton-X 100 (Sigma). 10% goat serum (vendor) was used for blocking. Cilia were stained using a monoclonal antibody against acetylated α-tubulin (1:20) from a C3B9 hybridoma cell line, and visualized with A F488 (1:1000, ThermoFisher). Nuclei were visualized with Hoechst. Cells were imaged using a GE INCell 2000 high-throughput imager at 40× magnification. 4 fields of view were taken per well.
# Each pair of nuclei and cilia images was first analyzed individually, then the entire population was examined to evaluate each compound's effect on cilia length and incidence. A custom MATLAB script was developed to perform all image analysis. This script first utilizes an enhanced implementation of a watershed transform, which is a segmentation tool which enables detection of similarly shaped overlapping particles in noisy images by the procedural whittling down of pixels found close to the edge of such particles. The augmentation of the algorithm incorporates thresholding for noise removal based on signal intensity and object size, nuclei dilation to exclude non-cellular artifacts, as well as skeletonization of cilia to quantify length. The results of the analysis are number of nuclei, number of cilia, and average cilia length in each image.
# Compounds were selected based on deviation from the population mean. Each well was normalized to vehicle control images on each plate, allowing the establishment of a normalized population mean. Hits were chosen based on compounds whose triplicate mean was furthest (based on standard deviation away) from the population mean. […] Compounds were classified based on mechanism of action.
# To identify compounds that modulate primary cilia formation a high-throughput platform was developed to automate cell culture, staining, imaging, and analysis, as shown in schematic form in FIG. 18. […] Cells were cultured on 384-well plates, and treated with small molecules with known biologic activity, enabling classification of mechanisms of action. Drug treatment was applied for 16 hours at 10 μM concentration, performed in triplicate, before fixation and immunostaining of primary cilia. Cells were then imaged using the GE INCell 2000 High Content Analyzer, capturing 4 fields of view per well at 40× magnification. Additionally, each plate contains 8 wells of DMSO vehicle control.
# A MATLAB script was developed to detect and analyze changes in ciliogenesis. […] A representative exemplary image (FIG. 19A) is cropped to better display features, scale bar represents 30 μm. A custom MATLAB script was used to identify nuclei and cilia for analysis (FIG. 19B). […] Objects are further filtered based on size and signal intensity.
# Cilia length and incidence for each field of view were normalized to vehicle control on that individual plate. This allowed development of a normalized population average and standard deviation. […] To control for toxic effects only small molecules with at least 40% viability, based on number of nuclei versus control, were selected as hits. Furthermore, compounds repeated between multiple libraries eliciting the same effect on cilia length or incidence were excluded, such that only one of the repeated compounds was selected as a hit.
# [1] = 10 μM, 16 hours, triplicate, normalized to vehicle control, standard deviation away from the population average
SMILES,Average Length SD Away [1],Average Incidence SD Away [1],Average Length SD Away
Cn1ccc2cc3c(cc21)CCN3C(=O)Nc1cccnc1 [SB 206553 hydrochloride],1.704 SD,,
CC[C@@]1(O)C(=O)OCc2c1cc1n(c2=O)Cc2cc3cc(O)ccc3nc2-1 [10-HYDROXYCAMPTOTHECIN],2.11 SD,,
CCc1nc(N)nc(N)c1-c1ccc(Cl)cc1 [PYRIMETHAMINE],3.194 SD,1.762 SD,
CNCCc1ccccn1 [BETAHISTINE HYDROCHLORIDE],1.532 SD,,
Nc1nccc(-c2ccc3noc(-c4ccc(Cl)cc4)c3c2)n1 [PIM 1 Inhibitor 2],3.223 SD,,
COc1ccc2oc(-c3ccccc3OC)cc(=O)c2c1 [62 -DIMETHOXYFLAVONE],1.745 SD,,
CC(C)NCC(O)c1ccc(O)c(O)c1 (stereo not shown) [Isoprenaline hydrochloride],,1.623 SD,
"COc1ccc(C(=O)CC(=O)c2ccc(C(C)(C)C)cc2)cc1 [Avobenzone (Parsol 1789), Avobenzone]",,1.502 SD,
CCN[C@H]1C[C@H](C)S(=O)(=O)c2sc(S(N)(=O)=O)cc21 [Dorzolamide HCL],2.205 SD,,
CC(C[N+](C)(C)C)OC(N)=O (stereo not shown) [Bethanechol chloride],,1.764 SD,
COc1cc2c(cc1O)CC[C@@H]1[C@@H]2CC[C@]2(C)[C@@H](O)CC[C@@H]12 [2-Methoxyestradiol],1.62 SD,,
"O=C[C@H](O)[C@@H](O)[C@H](O)[C@H](O)CO [Dextrose (D-glucose), D-glucose]",,1.518 SD,
CON [METHOXYAMINE HYDROCHLORIDE],1.91 SD,,
"O=C(NCCO[N+](=O)[O-])c1cccnc1 [Nicorandil (Ikorel), Nicorandil]",,1.556 SD,
COC(=O)C1=C(C)NC(C)=C(C(=O)OC2CCCN(Cc3ccccc3)C2)C1c1cccc([N+](=O)[O-])c1 (stereo not shown) [Benidipine hydrochloride],,1.811 SD,
Cc1cc(NS(=O)(=O)c2ccc(N)cc2)no1 [Sulfamethoxazole],,1.767 SD,
N#C/C(=C\c1ccc(O)c(O)c1)C(=O)Nc1ccccc1 [AG 494],1.575 SD,,
C[C@@H]1C[C@@H]([C@H](O)CC2CC(=O)NC(=O)C2)C(=O)[C@@H](C)C1 [CYCLOHEXIMIDE],3.609 SD,,
Br.C=CCN1CCc2cc(O)c(O)cc2C(c2ccccc2)C1 (stereo not shown) [SKF 77434 hydrobromide],1.527 SD,,
"CC(C)C(=O)Nc1ccc([N+](=O)[O-])c(C(F)(F)F)c1 [Flutamide (Eulexin), Flutamide]",,2.035 SD,
COc1ccc2cccc(N3CCN(CCNC(=O)c4ccc(F)cc4)CC3)c2c1.Cl [S 14506 hydrochloride],1.54 SD,,
CC(C)(C)[N+]([O-])=Cc1ccc(S(=O)(=O)[O-])cc1S(=O)(=O)[O-].[Na+].[Na+] [NXY 059],,1.838 SD,
CCCOc1ccc2nc(NC(=O)OC)[nH]c2c1 [Oxibendazole],,4.084 SD,
CC(=O)C(=Cc1ccccc1)CC(=O)O [LEVULINIC ACID 3-BENZYLIDENYL-],2.3613 SD,,
COc1cc2c(cc1OC)C1C(=O)c3c(cc4c(c3O)C=CC(C)(C)O4)OC1CO2 (stereo not drawn) [beta-TOXICAROL],1.664 SD,,
CC(C)(C)CC(C)(C)c1ccc(OCCOCC[N+](C)(C)Cc2ccccc2)cc1 [Benzethonium chloride],,,5.179 SD
O=C1NC(=O)C(c2ccccc2[N+](=O)[O-])=C1Nc1ccc(O)c(Cl)c1 [SB 415286],2.05 SD,,

SMILES,Average Length SD Away [1],Average Incidence SD Away [1],Average Length SD Away
"Cc1cccc(C)c1NC(=O)CN1CCCC1=O [Nefiracetam (Translon), Nefiracetam]",,1.552 SD,
CC(=O)O[C@H]1CC[C@@]2(C)[C@@H](CC[C@@H]3[C@@H]2CC(=O)[C@]2(C)[C@@H]4[C@H](C[C@@H]32)O[C@]2(CC[C@@H](C)CO2)[C@H]4C)C1 [HECOGENIN ACETATE],2.21 SD,,
CCN(CC)CCNc1ccc(CO)c2sc3ccccc3c(=O)c12 [HYCANTHONE],2.896 SD,,
Cc1cccc(N(C)C(=S)Oc2ccc3ccccc3c2)c1 [Tolnaftate],,1.5099 SD,
CC(=O)O[C@H]1C[C@@H](OC(C)=O)C(C)(C)[C@@H]2C[C@@H](OC(C)=O)[C@]3(C)[C@H](CC[C@@]4(C)[C@H](c5ccoc5)OC(=O)[C@H]5O[C@@]534)[C@@]12C [KHIVORIN],1.723 SD,,
Nc1nc(N)c2nc(-c3ccccc3)c(N)nc2n1 [Triamterene],2.775 SD,,
CCCCc1oc2ccccc2c1C(=O)c1cc(I)c(OCCN(CC)CC)c(I)c1 [Amiodarone HCl],,3.38 SD,
"COc1c(C)c2c(c(O)c1C/C=C(\C)CCC(=O)OCCN1CCOCC1)C(=O)OC2 [Mycophenolate mofetil (CellCept), Mycophenolate mofetil]",1.579 SD,1.654 SD,
"CC(C)OC(=O)C(C)(C)Oc1ccc(C(=O)c2ccc(Cl)cc2)cc1 [Fenofibrate (Tricor Trilipix), Fenofibrate]",,2.95 SD,
"CC(=O)Nc1ccccc1 [Acetanilide (Antifebrin), Acetanilide]",,1.696 SD,
O=C([O-])c1ccccc1-c1c2cc(Br)c(=O)cc-2oc2[c]([Hg+])c([O-])c(Br)cc12.[Na+].[Na+].[OH-] [Merbromin],5.067 SD,,
NC(=O)c1ccc(N)nc1 [6-AMINONICOTINAMIDE],2.008 SD,,
CCn1cc(C(=O)O)c(=O)c2cc(F)c(N3CCN(C)CC3)cc21 [Pefloxacin mesylate],,1.682 SD,
"C#CCC(Cc1cnc2nc(N)nc(N)c2n1)c1ccc(C(=O)N[C@@H](CCC(=O)O)C(=O)O)cc1 (stereo partly shown) [Pralatrexate(Folotyn), Pralatrexate]",2.105 SD,2.193 SD,
Cl.O=C1NCCc2[nH]c(-c3ccncc3)cc21 [PHA 767491 hydrochloride],1.724 SD,,
CC(=O)O[C@@H]1C[C@H]2C(C)(C)C(=O)C=C[C@]2(C)[C@H]2CC[C@]3(C)C(=CC(=O)O[C@H]3c3ccoc3)[C@@]21C [DEOXYGEDUNIN],2.161 SD,,
"C[C@@H](NC(=O)/C(C#N)=C/c1ccc(O)c(O)c1)c1ccccc1 (single isomer, unassigned) [Tyrphostin B44 (−) enantiomer]",1.877 SD,,
CC1(C)C(=O)C=C[C@]2(C)[C@H]3CC[C@@]4(C)[C@H](c5ccoc5)OC(=O)[C@H]5O[C@]54[C@]3(C)C(=O)C[C@@H]12 [DEACETOXY-7-OXOGEDUNIN],1.843 SD,,
CCc1c2c(nc3ccc(OC(=O)N4CCC(N5CCCCC5)CC4)cc13)-c1cc3c(c(=O)n1C2)COC(=O)[C@]3(O)CC [Irinotecan],1.658 SD,1.681 SD,
c1ccc(-c2[nH]ncc2-c2ccnc3ccccc23)nc1 [LY 364947],,1.591 SD,
"Cc1ncc([N+](=O)[O-])n1CCO [Metronidazole (Flagyl), Metronidazole]",,2.092 SD,
COc1cc2c(cc1C(F)(F)F)N(C(=O)Nc1cc(F)cc(-c3cccnc3)c1)CC2 [SB 228357],2.332 SD,,
N=C1C=CC(=C(c2ccc(N)cc2)c2ccc(N)cc2)C=C1 [PARAROSANILINE PAMOATE],2.389 SD,,
Cn1c(=O)c2[nH]cnc2n(C)c1=O.Cn1c(=O)c2[nH]cnc2n(C)c1=O.NCCN [Aminophylline ethylenediamine],,2.59 SD,
NC(=O)c1ncn([C@@H]2O[C@H](CO)[C@@H](O)[C@H]2O)c1N [Acadesine],,1.847 SD,
C[C@@H](CN1CCC(n2c(=O)[nH]c3cc(Cl)ccc32)CC1)NC(=O)c1ccc2ccccc2c1 [VU 0155069],1.618 SD,,
"CN1CCN2c3ncccc3Cc3ccccc3C2C1 (stereo not shown) [Mirtazapine (Remeron Avanza), Mirtazapine]",,1.681 SD,
